Article PMC8498988, “Scaffold Hybridization Strategy Leads to the Discovery of Dopamine D3 Receptor-Selective or Multitarget Bitopic Ligands Potentially Useful for Central Nervous System Disorders” (ACS Chemical Neuroscience, 2021)
Counter-ions that a name gives are not always drawn. Marks after values point to notes of the source that are not given here.

Experiments:
[1] = biological target: D2R (Homo sapiens, UniProt P14416); experiment: Radioligand competition binding at human D2R ([3H]N-methylspiperone, HEK293 membranes); parameters: expressed in transfected cells; host or cells: HEK293; details: for inhibition at 10 µM / inhibition percentage of the radioligand binding, D2R: test compound concentration of 10 μM; for inhibition at 10 µM: read-out: inhibition percentage of the radioligand binding, D2R; for Ki: HEK 293 cells expressing hD2R, read-out: Ki ± SEM, D2R; for inhibition percentage of the radioligand binding, D2R: 10 µM
Sequence of D2R (P14416 whole entry): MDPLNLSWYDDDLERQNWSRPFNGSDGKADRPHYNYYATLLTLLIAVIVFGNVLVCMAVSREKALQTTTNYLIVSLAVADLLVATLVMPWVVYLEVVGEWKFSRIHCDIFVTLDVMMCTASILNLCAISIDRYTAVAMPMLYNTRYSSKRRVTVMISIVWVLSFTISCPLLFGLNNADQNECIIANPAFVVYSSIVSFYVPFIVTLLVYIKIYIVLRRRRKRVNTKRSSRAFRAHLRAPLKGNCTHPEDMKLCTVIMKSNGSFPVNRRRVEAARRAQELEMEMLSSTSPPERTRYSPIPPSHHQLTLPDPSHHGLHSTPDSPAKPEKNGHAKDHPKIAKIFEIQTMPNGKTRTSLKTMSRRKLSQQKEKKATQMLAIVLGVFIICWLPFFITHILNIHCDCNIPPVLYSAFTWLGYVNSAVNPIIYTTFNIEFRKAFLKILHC
Description: (§1) The novel hybrid derivatives 3–11 were tested at hD2R, hD3R, or hD4R stably expressed in HEK293 cells by competition binding assays, using [^3H]N-methylspiperone as the radioligand, to evaluate their D2-like affinity and subtype selectivity, following the previously reported procedures.[41],[45],[46]
(§2) Binding at dopamine D2-like receptors was determined using previously described methods.[41],[45],[46] Membranes were prepared from HEK293 cells stably expressing human D2, D3, or D4, grown in a 50:50 mix of Dulbecco’s minimal essential medium (DMEM) and Ham’s F12 culture media, supplemented with 20 mM HEPES, 2 mM L-glutamine, 0.1 mM nonessential amino acids, 1× antibiotic/antimycotic, 10% heat-inactivated fetal bovine serum, and 200 μg/mL hygromycin (Life Technologies, Grand Island, NY) and kept in an incubator at 37 °C and 5% CO2. Upon reaching 80–90% confluency, the cells were harvested using premixed Earle’s Balanced Salt Solution (EBSS) with 5 μM EDTA (Life Technologies) and centrifuged at 3000 rpm for 10 min at 21 °C. The supernatant was removed, and the pellet was resuspended in 10 mL hypotonic lysis buffer (5 mM MgCl2, 5 mM Tris, pH 7.4 at 4 °C) and centrifuged at 20,000 rpm for 30 min at 4 °C. The pellet was then resuspended in fresh EBSS buffer made from 8.7 g/L Earle’s Balanced Salts without phenol red (US Biological, Salem, MA), 2.2 g/L sodium bicarbonate, pH to 7.4. A Bradford protein assay (Bio-Rad, Hercules, CA) was used to determine the protein concentration, and membranes were diluted to 500 μg/mL and stored at −80 °C for later use. Radioligand competition binding experiments were conducted using thawed membranes. Test compounds were freshly dissolved in 30% DMSO and 70% H2O to a stock concentration of 100 μM. To assist the solubilization of free-base compounds, 10 μL of glacial acetic acid was added along with DMSO. Each test compound was then diluted into 13 half-log serial dilutions using 30% DMSO vehicle; the final test concentrations ranged from 10 μM to 10 pM. The previously frozen membranes were diluted in fresh EBSS to a 100 μg/mL (for D2 or D3) or 200 μg/mL (D4) stock for binding. Radioligand competition experiments were conducted in glass tubes containing 300 μL of fresh EBSS buffer, 50 μL of diluted test compound, 100 μL of membranes (10 μg of total protein for D2 or D3 and 20 μg of total protein for D4), and 50 μL of [^3H]N-methylspiperone (0.4 nM final concentration; PerkinElmer). Nonspecific binding was determined using 10 μM butaclamol (Sigma-Aldrich, St. Louis, MO), and total binding was determined with the 30% DMSO vehicle. All compound dilutions were tested in triplicate and the reaction was incubated for 1 h at room temperature. The reaction was terminated by filtration through Whatman GF/B filters, presoaked for 1 h in 0.5% polyethylenimine, using a Brandel R48 filtering manifold (Brandel Instruments, Gaithersburg, MD). The filters were washed three times with 3 mL of ice-cold EBSS buffer and transferred to scintillation vials. CytoScint liquid scintillation cocktail (3 mL, MP Biomedicals, Solon, OH) was added, and vials were counted using a PerkinElmer Tri-Carb 2910 TR liquid scintillation counter (Waltham, MA).

[2] = biological target: D3R (Homo sapiens, UniProt P35462); experiment: Radioligand competition binding at human D3R ([3H]N-methylspiperone, HEK293 membranes); parameters: expressed in transfected cells; host or cells: HEK293; details: for Ki: HEK 293 cells expressing hD3R, read-out: Ki ± SEM, D3R; for D2/D3: ratio of Ki values D2R/D3R; for D4/D3: ratio of Ki values D4R/D3R
Sequence of D3R (P35462 whole entry): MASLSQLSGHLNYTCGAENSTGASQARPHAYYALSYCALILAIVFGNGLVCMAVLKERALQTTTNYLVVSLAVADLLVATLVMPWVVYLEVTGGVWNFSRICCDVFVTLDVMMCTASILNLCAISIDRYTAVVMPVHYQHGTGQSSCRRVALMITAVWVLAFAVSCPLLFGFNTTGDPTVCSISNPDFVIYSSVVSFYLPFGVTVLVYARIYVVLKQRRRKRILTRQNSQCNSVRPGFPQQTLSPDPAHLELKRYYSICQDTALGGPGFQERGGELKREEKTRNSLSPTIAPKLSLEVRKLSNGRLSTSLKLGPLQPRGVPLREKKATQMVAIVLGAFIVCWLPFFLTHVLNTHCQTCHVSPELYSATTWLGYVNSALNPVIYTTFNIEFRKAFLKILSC
Description: as §1, §2

[3] = biological target: T1, D4R (Homo sapiens, UniProt P21917); experiment: Radioligand competition binding at human D4R ([3H]N-methylspiperone, HEK293 membranes); parameters: expressed in transfected cells; host or cells: HEK293; details: for inhibition at 10 µM / inhibition percentage of the radioligand binding, D4R: test compound concentration of 10 μM; for inhibition at 10 µM: read-out: inhibition percentage of the radioligand binding, D4R; for Ki: HEK 293 cells expressing hD4R, read-out: Ki ± SEM, D4R; for inhibition percentage of the radioligand binding, D4R: 10 µM
T1 sequence (P21917 1-419): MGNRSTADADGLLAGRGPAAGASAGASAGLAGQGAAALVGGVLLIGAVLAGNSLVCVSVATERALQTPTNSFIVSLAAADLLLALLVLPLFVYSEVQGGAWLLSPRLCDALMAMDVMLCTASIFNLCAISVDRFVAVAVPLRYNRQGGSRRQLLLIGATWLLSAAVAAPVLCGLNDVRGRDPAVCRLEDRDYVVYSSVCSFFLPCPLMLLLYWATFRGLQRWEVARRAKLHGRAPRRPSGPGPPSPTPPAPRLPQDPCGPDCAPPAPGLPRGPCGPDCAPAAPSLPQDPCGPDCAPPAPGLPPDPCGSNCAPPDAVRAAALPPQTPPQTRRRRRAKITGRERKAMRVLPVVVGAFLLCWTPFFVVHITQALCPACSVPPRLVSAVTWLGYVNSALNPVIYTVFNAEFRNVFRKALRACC
Description: as §1, §2

For `O=C(NCCC(O)CN1CCN(c2cccc(Cl)c2Cl)CC1)C1COCC(c2ccccc2)(c2ccccc2)O1` (single isomer, unassigned) (as salt: oxalate) [4a, N-(4-(4-(2,3-Dichlorophenyl)piperazin-1-yl)-3-hydroxybutyl)-6,6-diphenyl-1,4-dioxane-2-carboxamide], the melting point was 146 to 147 °C.

Molecule `O=C(NCCC(F)CN1CCN(c2cccc(Cl)c2Cl)CC1)C1COCC(c2ccccc2)(c2ccccc2)O1` (centres unmarked) [compound 5, N-(4-(4-(2,3-Dichlorophenyl)piperazin-1-yl)-3-fluorobutyl)-6,6-diphenyl-1,4-dioxane-2-carboxamide] has an inhibition at 10 µM [1] of 21.2%, a Ki ([2]; [3H]N-methylspiperone) of 716 ± 178 nM and an inhibition at 10 µM [3] of 19.1%.

Molecule `O=C(NCCC(F)CN1CCN(c2cccc(Cl)c2Cl)CC1)C1COCC(c2ccccc2)(c2ccccc2)O1` (centres unmarked) (as salt: oxalate) [compound 5, N-(4-(4-(2,3-Dichlorophenyl)piperazin-1-yl)-3-fluorobutyl)-6,6-diphenyl-1,4-dioxane-2-carboxamide] has a melting point of 100 to 101 °C.

`O=C(NCCC(O)CN1CCN(c2cccc(Cl)c2Cl)CC1)C1COc2ccccc2O1` (centres unmarked) [10a, N-(4-(4-(2,3-Dichlorophenyl)piperazin-1-yl)-3-hydroxybutyl)-2,3-dihydrobenzo[b][1,4]dioxine-2-carboxamide] gave a Ki [1] of 1100 ± 125 nM, a Ki ([2]; [3H]N-methylspiperone) of 44.1 ± 8.2 nM and a D2/D3 [2] of 25. For the same molecule, the D4/D3 [2] was 6 and the Ki [3] was 282 ± 76 nM.

For `O=C(NCCC(O)CN1CCN(c2cccc(Cl)c2Cl)CC1)C1COCC(c2ccccc2)(c2ccccc2)O1` (centres unmarked) [4a, N-(4-(4-(2,3-Dichlorophenyl)piperazin-1-yl)-3-hydroxybutyl)-6,6-diphenyl-1,4-dioxane-2-carboxamide], the inhibition at 10 µM [1] was 39.5%, the Ki ([2]; [3H]N-methylspiperone) was 164 ± 52 nM and the inhibition at 10 µM [3] was 39.2%.

For `O=C(NCCC(O)CN1CCN(c2cccc(Cl)c2Cl)CC1)C1COC(c2ccccc2)(c2ccccc2)CO1` (centres unmarked) [compound 7, N-(4-(4-(2,3-Dichlorophenyl)piperazin-1-yl)-3-hydroxybutyl)-5,5-diphenyl-1,4-dioxane-2 Carboxamide], the Ki [1] was 526 ± 28.2 nM, the Ki ([2]; [3H]N-methylspiperone) was 23.4 ± 3.1 nM and the D2/D3 [2] was 23. For the same molecule, the D4/D3 [2] was 17 and the Ki [3] was 390 ± 46 nM.

In the case of `O=C(NCCC(F)CN1CCN(c2cccc(Cl)c2Cl)CC1)C1COc2ccccc2O1` (centres unmarked) [11b, N-(4-(4-(2,3-Dichlorophenyl)piperazin-1-yl)-3-fluorobutyl)-2,3-dihydrobenzo[b][1,4]dioxine-2-carboxamide], the “inhibition percentage of the radioligand binding, D2R” value [1] is reported as 8.7% ^c, the “inhibition percentage of the radioligand binding, D3R” value ([2]; test compound concentration of 10 μM, [3H]N-methylspiperone, 10 µM) is reported as 65.4% ^c and the “inhibition percentage of the radioligand binding, D4R” value [3] is reported as 26.6% ^c.

For `O=C(NCCC(F)CN1CCN(c2cccc(Cl)c2Cl)CC1)C1COC(c2ccccc2)(c2ccccc2)CO1` (centres unmarked) [compound 8, N-(4-(4-(2,3-Dichlorophenyl)piperazin-1-yl)-3-fluorobutyl)-5,5-diphenyl-1,4-dioxane-2-carboxamide], the Ki [1] was 1200 ± 210 nM, the Ki ([2]; [3H]N-methylspiperone) was 295 ± 100 nM and the D2/D3 [2] was 4. For the same molecule, the inhibition at 10 µM [3] was 43.6%.

With `O=C(NCCC(O)CN1CCN(c2cccc(Cl)c2Cl)CC1)C1COCC(c2ccccc2)(c2ccccc2)O1` (centres unmarked) [4b, N-(4-(4-(2,3-Dichlorophenyl)piperazin-1-yl)-3-hydroxybutyl)-6,6-diphenyl-1,4-dioxane-2-carboxamide] the “inhibition percentage of the radioligand binding, D2R” value [1] was 41% ^c, the Ki ([2]; [3H]N-methylspiperone) was 77.1 ± 25.5 nM and the “inhibition percentage of the radioligand binding, D4R” value [3] was 54.4% ^c.

In the case of `O=C(NCCC(O)CN1CCN(c2cccc(Cl)c2Cl)CC1)C1COc2ccccc2O1` (centres unmarked) [10b, N-(4-(4-(2,3-Dichlorophenyl)piperazin-1-yl)-3-hydroxybutyl)-2,3-dihydrobenzo[b][1,4]dioxine-2-carboxamide], the Ki [1] is reported as 783 ± 19 nM, the Ki ([2]; [3H]N-methylspiperone) is reported as 23.4 ± 2.4 nM and the D4/D3 [2] is reported as 10. The Ki [3] was 244 ± 54 nM.

Molecule `O=C(NCCC(F)CN1CCN(c2cccc(Cl)c2Cl)CC1)C1COc2ccccc2O1` (centres unmarked) [11a, N-(4-(4-(2,3-Dichlorophenyl)piperazin-1-yl)-3-fluorobutyl)-2,3-dihydrobenzo[b][1,4]dioxine-2-carboxamide] has an inhibition at 10 µM [1] of 10.6%, an inhibition at 10 µM ([2]; test compound concentration of 10 μM, [3H]N-methylspiperone, read-out: inhibition percentage of the radioligand binding, D3R) of 54.8% and an inhibition at 10 µM [3] of 29.4%.
